Where two headings read alike, the source gives them in different places. No end group written: not given here.
Legend:
Test in all cases: biochemical
Type in all cases: binding
[1] = target: HLA-A*3002 (Homo sapiens, UniProt P04439, D101N/D140H/D185E/E176R/F33S/G80R/H175R/K168Q/Q94H/R138E/R41S/V100E)
[2] = target: HLA-A*2301 (Homo sapiens, UniProt P04439, D101N/D140Y/D185E/E176V/E190D/F33S/G103R/G107R/H175R/I119L/I121M/I306V/K168Q/K335N/L105A/L300P/N151K/N90K/P307H/Q86E/Q94H/R106L/R138H/R89G/T104I/T345S/V100E/W191G/Y123F)
[3] = target: HLA-A*6802 (Homo sapiens, UniProt P04439, A269V/D140Y/D185E/E176V/E277Q/E87N/F33Y/G231S/I121R/I166T/I218V/L180W/L300P/L318F/N151K/P208A/P217A/Q86R/R138H/R169H/S129P/T345S/V36M)
[4] = target: HLA-A*0202 (Homo sapiens, UniProt P04439, D140Y/D185E/D98H/E176V/E277Q/G131W/G231S/I119L/I121R/I166T/I218V/L180W/L300P/L318F/N151K/N90K/P208A/P217A/Q67R/Q86G/Q94H/R138H/R169H/T345S)
[5] = target: HLA-A*0203 (Homo sapiens, UniProt P04439, A173T/D140Y/D185E/D98H/E277Q/G131W/G231S/I119V/I121R/I166T/I218V/L180W/L300P/L318F/N151K/N90K/P208A/P217A/Q86G/Q94H/R138H/R169H/T345S)
[6] = target: HLA-A*0206 (Homo sapiens, UniProt P04439, D140Y/D185E/D98H/E176V/E277Q/F33Y/G131W/G231S/I119V/I121R/I166T/I218V/L300P/L318F/N151K/N90K/P208A/P217A/Q86G/Q94H/R138H/R169H/T345S)
[7] = target: HLA-A*0201 (Homo sapiens, UniProt P04439, D140Y/D185E/D98H/E176V/E277Q/G131W/G231S/I119V/I121R/I166T/I218V/L300P/L318F/N151K/N90K/P208A/P217A/Q86G/Q94H/R138H/R169H/T345S)
[8] = A*6802 binding affinity (expressed as an IC50)
[9] = A*0202 binding affinity (expressed as an IC50)
[10] = A*0203 binding affinity (expressed as an IC50)
[11] = A*0206 binding affinity (expressed as an IC50)
[12] = A*0201 binding affinity (expressed as an IC50)

Sequence	IC50 [3, 8]	IC50 [4, 9]	IC50 [5, 10]	IC50 [6, 11]	IC50 [7, 12]	other results
RVLPPNWKY	–	–	–	–	–	IC50 [1]: 3 nM; IC50 [2]: > 49000 nM
AYSSWMYSY	–	–	–	–	–	IC50 ([1]; Binding affinity to A*3002 (expressed as an IC50)): 4.9 nM; IC50 [2]: 21 nM
LIFHFFLFLL	460 nM	1470 nM	3170 nM	1560 nM	200 nM	–
WLNYTPGPGT	–	–	–	–	–	IC50 [3]: 11800 nM; IC50 [4]: 124 nM; IC50 [5]: 231 nM; IC50 [6]: > 31600 nM; IC50 [7]: 547 nM
VLFLQMMNV	323 nM	1.8 nM	2.7 nM	9.5 nM	31 nM	–
LFLSTLSF	–	–	–	–	–	IC50 ([1]; A*3002 binding affinity (IC50)): > 75000 nM; IC50 [2]: 160 nM
LLWQPIPV	32900 nM	2440 nM	9.9 nM	4250 nM	137 nM	–
YTPGPGIRYPV	9.2 nM	1990 nM	11100 nM	1110 nM	7760 nM	–
LLLPPLERLTL	–	–	–	–	–	IC50 [3]: > 12800 nM; IC50 [4]: 2610 nM; IC50 [5]: 9010 nM; IC50 [6]: 45 nM; IC50 [7]: 34 nM
VLVHPQWVV	14600 nM	65 nM	1990 nM	3220 nM	464 nM	–
MTSNPPIPV	3.8 nM	16 nM	0.39 nM	250 nM	53 nM	–
QLVGPGPGMEV	223 nM	17 nM	19 nM	919 nM	865 nM	–
YVDDVVLGV	354 nM	14 nM	70 nM	16 nM	18 nM	–
MTGNPPVPV	0.84 nM	158 nM	23 nM	35 nM	2020 nM	–
KISAVVGIL	4950 nM	42 nM	60 nM	1750 nM	6240 nM	–
MLLSVPLLL	24600 nM	79 nM	41 nM	8.4 nM	9 nM	–
GLGAVSRDL	–	–	–	–	–	IC50 [3]: > 16700 nM; IC50 [4]: 436 nM; IC50 [5]: 1730 nM; IC50 [6]: > 10400 nM; IC50 [7]: 18700 nM
SLLNGPGPGV	45 nM	3.8 nM	14 nM	63 nM	65 nM	–
YLLGPGPGGI	2060 nM	12 nM	3.3 nM	89 nM	180 nM	–
TLGPGPGHL	27900 nM	35 nM	66 nM	12100 nM	15000 nM	–
FAPGFFPYL	7.6 nM	0.85 nM	44 nM	2.3 nM	48 nM	–
MMIMIKFMGV	39 nM	19 nM	25 nM	109 nM	123 nM	–
PVPLQLPPV	–	–	–	–	–	IC50 [3]: > 15600 nM; IC50 [4]: > 7340 nM; IC50 [5]: 12600 nM; IC50 [6]: 81 nM; IC50 [7]: 10000 nM
FLKEKGGLDGV	–	–	–	–	–	IC50 [3]: 3810 nM; IC50 [4]: 3.7 nM; IC50 [5]: 11 nM; IC50 [6]: 3210 nM; IC50 [7]: 332 nM
LTFGWCFKV	–	–	–	–	–	IC50 [3]: 9.7 nM; IC50 [4]: 33 nM; IC50 [5]: 1170 nM; IC50 [6]: 187 nM; IC50 [7]: 15 nM
KTKDIVNGL	–	–	–	–	–	IC50 ([1]; A*3002 binding affinity (IC50)): 164 nM; IC50 [2]: > 49000 nM
VLAEAMSQT	–	–	–	–	–	IC50 [3]: 447 nM; IC50 [4]: 2.2 nM; IC50 [5]: 0.65 nM; IC50 [6]: 236 nM; IC50 [7]: 290 nM
IISAVVGIV	390 nM	15 nM	20 nM	958 nM	712 nM	–
GVLGWSPQV	–	–	–	–	–	IC50 [3]: 9430 nM; IC50 [4]: 157 nM; IC50 [5]: 389 nM; IC50 [6]: 28 nM; IC50 [7]: 22 nM

Source: patent US20060079453A1, “Hla binding peptides and their uses” (priority 2002, published 2006)
